Data set [1] addresses hVMAT2 (Homo sapiens, UniProt Q05940). The experiment in a line: FFN206 fluorescent substrate uptake inhibition in hVMAT2-HEK cells. It counts as cell-based.
In data set [2] the target is hSERT (Homo sapiens, UniProt P31645). The class given is cell-based. The settings on record: for IC50: read-out: IC50, hSERT (uptake inhibition, APP+), hSERT-HEK cells, fluorescent substrate APP+, n = 4.
In data set [3] the target is rat SERT (rSERT) (Rattus norvegicus, UniProt P31652). The experiment in a line: [3H]5-HT uptake inhibition in rat brain synaptosomes. It counts as biochemical. The settings on record: for IC50: rat brain synaptosomes.
Data set [4] addresses rat VMAT2 (rVMAT2) (Rattus norvegicus, UniProt Q01827). The experiment in a line: [3H]5-HT uptake inhibition in rat brain synaptic vesicular fraction. The class given is biochemical.
Data set [5] addresses SERT (Rattus norvegicus, UniProt P31652). The experiment in a line: [3H]5-HT release from rat brain synaptosomes via SERT. To be noted: for Emax: read-out: [3H]5-HT Release % Emax via SERT. It counts as biochemical.
Data set [6] concerns the target VMAT2 (Rattus norvegicus, UniProt Q01827). Briefly: [3H]5-HT release from rat brain synaptic vesicles via VMAT2. The class given is biochemical. The settings on record: for [3H]5-HT Release % Emax via VMAT2: rat brain vesicular fraction, 5-HT control set as Emax = 100%; for Concentration at which [3H]5-HT release exceeds Emax of 30%: rat brain synaptic vesicles; for Emax: read-out: [3H]5-HT Release % Emax via VMAT2.

Data set [7] deals with SERT (Mus musculus, UniProt Q60857). The experiment in a line: SERTlight two-photon imaging of SERT function in acute mouse brain slices. It counts as cell-based.
Data set [8] addresses mouse VMAT2 (mVMAT2) (Mus musculus, UniProt Q8BRU6). The experiment in a line: FFN200 two-photon imaging of VMAT2 function in acute mouse brain slices. It counts as cell-based. To be noted: 2 μM for 30 minutes, FFN200 10 μM, dorsal striatum.
Data set [9] has as its target T1, hOCT2 (Homo sapiens, UniProt O15244).
T1 sequence (O15244 1-555): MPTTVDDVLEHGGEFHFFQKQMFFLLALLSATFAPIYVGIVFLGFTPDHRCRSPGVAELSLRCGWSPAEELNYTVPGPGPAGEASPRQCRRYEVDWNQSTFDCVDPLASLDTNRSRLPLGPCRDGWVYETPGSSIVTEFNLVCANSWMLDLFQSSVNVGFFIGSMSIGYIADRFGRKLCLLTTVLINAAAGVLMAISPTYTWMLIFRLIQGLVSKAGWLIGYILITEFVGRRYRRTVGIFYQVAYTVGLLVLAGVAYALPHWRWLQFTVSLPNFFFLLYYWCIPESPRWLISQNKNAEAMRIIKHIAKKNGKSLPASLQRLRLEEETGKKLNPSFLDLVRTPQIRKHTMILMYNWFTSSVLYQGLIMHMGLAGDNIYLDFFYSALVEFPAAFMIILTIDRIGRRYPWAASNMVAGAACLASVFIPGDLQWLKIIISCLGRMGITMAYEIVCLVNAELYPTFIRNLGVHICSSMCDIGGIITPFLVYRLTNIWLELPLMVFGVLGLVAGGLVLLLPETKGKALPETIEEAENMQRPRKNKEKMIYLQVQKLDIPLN
The experiment in a line: ASP+ fluorescent substrate uptake inhibition at OCT2. The class given is cell-based.

The test system of data set [10] is NET. The settings on record: read-out: EC50, NET (release); synaptosomes; cited from earlier work.
The subject of data set [11] is mice. Briefly: Catalepsy bar test in mice. It counts as in vivo, mouse.
Data set [12] relates to mice. The experiment in a line: Open field locomotor activity test in mice. It counts as in vivo, mouse. The settings on record: s.c.; for Locomotor activity / sedation in open field test: dose-response.
Data set [13] can be described thus: Pharmacokinetics in mice, estimated free drug concentration in brain. It counts as in vivo, mouse. To be noted: mice, 50 mg/kg, s.c.
Data set [14] relates to humans. The settings on record: therapeutic doses, treated for dyskinesias; cited from earlier work.
Setting [15] is: read-out: IC50, hVMAT2 (uptake inhibition, FFN206), hVMAT2-HEK cells, fluorescent substrate FFN206, n = 4.
The mark [16] stands for this setting: read-out: Uptake Inhibition at SERT IC50, [3H]5-HT (rSERT).
Where [17] appears, read: read-out: [3H]5-HT Uptake Inhibition IC50 ± SD, SERT, n = 3.
The mark [18] stands for this setting: read-out: Uptake Inhibition at VMAT2 IC50, [3H]5-HT (rVMAT2), rat brain synaptic vesicles.
Setting [19] is: rat brain synaptosomes, n = 3, active releaser: EC50 < 10 μM and Emax > 30%.
The mark [20] stands for this setting: read-out: [3H]5-HT Release EC50 ± SD via VMAT2.

“Also recorded” adds a separate entry of the source. Where two headings read alike, the source gives them in different places. Bounds are passed on as bounds.

Chain of hVMAT2 (Q05940 whole entry): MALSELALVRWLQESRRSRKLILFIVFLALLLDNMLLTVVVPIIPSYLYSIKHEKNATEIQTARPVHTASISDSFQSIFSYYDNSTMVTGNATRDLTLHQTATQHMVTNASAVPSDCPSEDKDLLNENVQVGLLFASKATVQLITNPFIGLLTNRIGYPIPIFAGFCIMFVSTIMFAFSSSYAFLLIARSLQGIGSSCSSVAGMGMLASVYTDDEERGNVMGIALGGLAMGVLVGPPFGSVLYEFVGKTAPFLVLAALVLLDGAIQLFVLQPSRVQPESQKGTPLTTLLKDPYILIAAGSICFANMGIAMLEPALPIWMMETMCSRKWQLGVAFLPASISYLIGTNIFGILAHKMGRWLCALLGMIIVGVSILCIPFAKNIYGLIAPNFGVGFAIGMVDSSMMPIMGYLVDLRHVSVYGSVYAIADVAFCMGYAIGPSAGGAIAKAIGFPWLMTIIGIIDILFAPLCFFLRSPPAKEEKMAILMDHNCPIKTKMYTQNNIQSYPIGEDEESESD
Chain of mouse VMAT2 (mVMAT2) (Q8BRU6 whole entry): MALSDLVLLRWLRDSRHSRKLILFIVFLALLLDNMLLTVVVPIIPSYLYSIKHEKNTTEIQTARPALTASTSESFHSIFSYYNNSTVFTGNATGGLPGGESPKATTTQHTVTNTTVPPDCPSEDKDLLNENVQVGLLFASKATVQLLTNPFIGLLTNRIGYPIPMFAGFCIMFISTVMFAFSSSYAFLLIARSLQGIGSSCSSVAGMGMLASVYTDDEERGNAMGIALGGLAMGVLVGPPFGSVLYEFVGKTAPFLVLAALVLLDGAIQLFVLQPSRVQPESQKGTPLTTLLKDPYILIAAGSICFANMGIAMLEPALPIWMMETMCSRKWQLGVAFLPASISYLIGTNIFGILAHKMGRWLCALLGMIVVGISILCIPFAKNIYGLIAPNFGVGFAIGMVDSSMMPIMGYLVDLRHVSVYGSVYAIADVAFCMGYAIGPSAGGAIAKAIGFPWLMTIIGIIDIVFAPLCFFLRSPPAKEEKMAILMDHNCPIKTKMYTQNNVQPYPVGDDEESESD
Chain of hSERT (P31645 whole entry): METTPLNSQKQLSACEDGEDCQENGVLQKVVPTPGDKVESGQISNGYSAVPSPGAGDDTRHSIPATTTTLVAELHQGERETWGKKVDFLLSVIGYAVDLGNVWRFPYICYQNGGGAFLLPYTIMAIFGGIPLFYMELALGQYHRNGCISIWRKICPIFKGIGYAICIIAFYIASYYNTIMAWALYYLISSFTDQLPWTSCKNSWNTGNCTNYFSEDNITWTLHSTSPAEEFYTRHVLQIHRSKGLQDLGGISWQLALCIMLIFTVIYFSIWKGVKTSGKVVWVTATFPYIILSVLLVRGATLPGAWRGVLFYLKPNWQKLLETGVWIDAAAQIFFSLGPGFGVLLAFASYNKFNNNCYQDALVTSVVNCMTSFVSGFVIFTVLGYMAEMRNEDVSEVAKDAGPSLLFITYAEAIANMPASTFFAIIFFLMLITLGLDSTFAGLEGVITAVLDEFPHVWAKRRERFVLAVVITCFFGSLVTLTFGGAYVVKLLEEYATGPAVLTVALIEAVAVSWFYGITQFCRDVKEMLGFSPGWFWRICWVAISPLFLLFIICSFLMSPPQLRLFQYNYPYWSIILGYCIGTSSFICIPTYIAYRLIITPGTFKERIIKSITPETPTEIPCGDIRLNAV
Chain of SERT (Mus musculus, UniProt Q60857) (Q60857 whole entry): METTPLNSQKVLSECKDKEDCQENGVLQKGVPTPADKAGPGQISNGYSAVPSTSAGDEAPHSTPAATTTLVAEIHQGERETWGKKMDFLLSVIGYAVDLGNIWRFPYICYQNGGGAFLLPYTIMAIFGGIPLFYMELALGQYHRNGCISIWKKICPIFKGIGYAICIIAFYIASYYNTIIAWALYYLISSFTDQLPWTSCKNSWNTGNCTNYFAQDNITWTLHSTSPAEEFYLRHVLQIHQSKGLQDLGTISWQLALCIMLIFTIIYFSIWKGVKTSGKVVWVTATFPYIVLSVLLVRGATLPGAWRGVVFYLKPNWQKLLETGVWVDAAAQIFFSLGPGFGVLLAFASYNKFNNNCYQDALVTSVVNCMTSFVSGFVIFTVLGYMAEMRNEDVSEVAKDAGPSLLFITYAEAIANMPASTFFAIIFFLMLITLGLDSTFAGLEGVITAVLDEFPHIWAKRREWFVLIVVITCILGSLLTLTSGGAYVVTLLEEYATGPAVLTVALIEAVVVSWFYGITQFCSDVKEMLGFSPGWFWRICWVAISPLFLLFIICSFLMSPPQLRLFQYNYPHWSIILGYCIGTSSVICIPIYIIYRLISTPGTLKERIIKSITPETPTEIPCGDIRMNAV
Chain of rat SERT (rSERT) (P31652 whole entry): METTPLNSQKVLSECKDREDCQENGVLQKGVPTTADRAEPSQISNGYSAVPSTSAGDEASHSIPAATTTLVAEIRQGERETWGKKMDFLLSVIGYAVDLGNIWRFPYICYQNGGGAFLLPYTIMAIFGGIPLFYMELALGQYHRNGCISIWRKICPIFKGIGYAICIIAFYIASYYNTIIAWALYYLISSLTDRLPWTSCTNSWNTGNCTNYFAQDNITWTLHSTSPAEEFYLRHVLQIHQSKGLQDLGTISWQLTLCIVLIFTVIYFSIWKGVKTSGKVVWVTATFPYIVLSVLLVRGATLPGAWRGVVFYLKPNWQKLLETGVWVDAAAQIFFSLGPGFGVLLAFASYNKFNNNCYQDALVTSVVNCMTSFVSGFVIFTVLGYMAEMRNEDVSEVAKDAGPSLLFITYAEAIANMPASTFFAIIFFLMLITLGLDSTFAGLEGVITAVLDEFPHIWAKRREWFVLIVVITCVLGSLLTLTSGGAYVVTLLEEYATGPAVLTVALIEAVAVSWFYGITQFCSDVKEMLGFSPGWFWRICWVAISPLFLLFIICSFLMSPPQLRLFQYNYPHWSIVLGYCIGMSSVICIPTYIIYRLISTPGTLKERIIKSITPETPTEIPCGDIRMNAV
Chain of SERT (Rattus norvegicus, UniProt P31652) (P31652 whole entry): as above
Chain of VMAT2 (Q01827 whole entry): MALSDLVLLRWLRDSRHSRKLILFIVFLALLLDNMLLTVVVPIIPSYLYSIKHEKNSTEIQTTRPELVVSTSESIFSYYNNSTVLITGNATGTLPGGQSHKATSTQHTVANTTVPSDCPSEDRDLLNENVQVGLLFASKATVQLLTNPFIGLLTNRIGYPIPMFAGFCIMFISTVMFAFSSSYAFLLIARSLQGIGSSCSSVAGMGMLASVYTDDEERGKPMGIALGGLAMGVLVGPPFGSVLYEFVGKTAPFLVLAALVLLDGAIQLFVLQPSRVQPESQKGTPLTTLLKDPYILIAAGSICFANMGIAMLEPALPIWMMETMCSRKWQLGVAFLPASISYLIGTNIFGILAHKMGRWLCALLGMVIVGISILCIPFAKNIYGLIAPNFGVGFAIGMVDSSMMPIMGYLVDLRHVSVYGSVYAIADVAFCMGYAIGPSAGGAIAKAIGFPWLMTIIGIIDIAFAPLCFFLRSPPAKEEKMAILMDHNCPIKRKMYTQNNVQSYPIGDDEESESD
Chain of rat VMAT2 (rVMAT2) (Q01827 whole entry): as above

A word on the IC50: it is the concentration needed to halve the response being measured. By EC50 is commonly meant the midpoint of the concentration-response curve. Consider `CCC1CC2CC3c4c(c5cc(O)ccc5n4C)CCN(C2)C13` (stereo not shown) [N-methyl-noribogaine], for which the IC50 turned out to be 170 nM in [1] (setting [15]); 59 nM in data set [2]; 14 nM in [3] (setting [16]); 13.6 ± 1.2 nM in data set [3] (setting [17]); 239 nM in [4] (setting [18]). The “[3H]5-HT Release % Emax via SERT” value in data set [5] (rat brain synaptosomes, n = 3) is below 30%. Further, the “[3H]5-HT Release EC50 ± SD via SERT” value in data set [5] (setting [19]) was “inactive”. For the same molecule, in data set [6], the “[3H]5-HT Release % Emax via VMAT2” value amounted to 32%. Besides, in [6] (setting [20]), the EC50 was found to be 219 ± 36 nM.

In the case of `CC[C@H]1C[C@@H]2C[C@H]3c4[nH]c5ccc(C#N)cc5c4CCN(C2)[C@@H]13` [5-cyano-ibogamine], the IC50 was determined as 3340 nM in data set [1] (setting [15]); 26 nM in data set [2]; 65 nM in [3] (setting [16]); 65.2 ± 5.4 nM in [3] (setting [17]); 9620 nM in data set [4] (setting [18]). In addition, the “[3H]5-HT Release % Emax via SERT” value in data set [5] (rat brain synaptosomes, n = 3) is reported as below 30%. The “[3H]5-HT Release EC50 ± SD via SERT” value in [5] (setting [19]) was “inactive”. The “Concentration at which [3H]5-HT release exceeds Emax of 30%” value (shortened to “Concentration at which … of 30%”) in data set [6] is above 10 µM. Moreover, the “[3H]5-HT Release % Emax via VMAT2” value in data set [6] was below 30%. The “Effect on SERTlight labeling of 5-HT axons” value is “Marked labeling inhibition; also recorded: marked suppression of SERTlight fluorescent labeling” in data set [7] (0.2 μM (200 nM), dorsal striatum) and “ablated SERTlight probe uptake; also recorded: fully inhibited SERTlight label” in [7] (2 μM for 30 minutes, SERTlight 10 μM, SNpr, DS, SSp2/3). The “Effect on FFN200 uptake / punctate labeling” value in [8] was “no inhibitory effects; also recorded: had no effect on labeling pattern”.

In the case of `COc1cc2c(cc1OC)[C@H]1C[C@@H](O)[C@H](CC(C)C)CN1CC2` [DTBZ, dihydrotetrabenazine, reference compound], the “Effect on FFN200 uptake / punctate labeling” value in data set [8] is listed as “attenuated; also recorded: inhibited the labeling pattern”.

In the case of `CCOc1ccc2[nH]c3c(c2c1)CCN1CC2CC(CC)C1C3C2` (stereo not shown) [5-ethoxyibogamine], in [1] (ratio of IC50 values, cell-based fluorometry), the “Selectivity hVMAT2 over hSERT” value is recorded as “more than 100 fold”. In addition, the 50% inhibitory concentration (IC50) amounted to 80 nM in data set [1] (setting [15]) and 9030 nM in [2].

One may read the Emax as the size of the effect at its maximum, as opposed to the concentration needed. On to `CC[C@H]1C[C@@H]2C[C@H]3c4[nH]c5ccccc5c4CCN(C2)[C@@H]13` [ibogamine], for which the half-maximal inhibitory concentration (IC50) in data set [1] was 3010 nM; in [9], 2000 nM; in data set [3] (Uptake Inhibition at SERT IC50, [3H]5-HT (rSERT)) it was 554 nM; in data set [3] ([3H]5-HT Uptake Inhibition IC50 ± SD, SERT, n = 3) it was 554 ± 49 nM; in data set [4] it was above 10000 nM. Besides, the “[3H]5-HT Release EC50 ± SD via SERT” value in [5] was “inactive”. The “[3H]5-HT release from preloaded synaptosomes (qualitative)” value in data set [5] (rat brain synaptosomes) was “No [^3H]5-HT release was observed”. In addition, the Emax in [5] and in data set [6] was below 30% in each case. Also, in data set [6], the “[3H]5-HT Release EC50 ± SD via VMAT2” value was “inactive”. Besides, in data set [6], the “Concentration at which … of 30%” value was above 10 µM.

For `COC(=O)[C@H]1[C@H]2C[C@@H]3c4[nH]c5cc(OC)ccc5c4CCN3C[C@H]2C[C@@H](OC(=O)c2cc(OC)c(OC)c(OC)c2)[C@@H]1OC` [reserpine, reference compound], the Emax in data set [6] is below 30%.

Consider `CC(N)Cc1ccccc1` (stereo not shown) [amphetamine, reference compound], for which the “[3H]5-HT release from preloaded synaptosomes (qualitative)” value in data set [5] (rat brain synaptosomes) is “robust [^3H]5-HT release”. Further, the Emax was 91% in data set [5] and 98% in data set [6].

Regarding `C[C@H](N)Cc1ccccc1` [S-amphetamine], in [10], the EC50 is […].

As for `CC[C@H]1C[C@@H]2C[C@H]3c4c(c5cc(OC)ccc5n4C)CCN(C2)[C@@H]13` [N-methyl-ibogaine], the IC50 in data set [9] (read-out: IC50, hOCT2, ASP+ fluorescent substrate) was found to be 2300 nM.

As for `NCCc1c[nH]c2ccc(O)cc12` [serotonin (5-HT), serotonin, reference compound], in data set [6], the midpoint of the response, the EC50, lay at 585 ± 129 nM and the Emax is 113%.

Turning to `CN(C)CCCN1c2ccccc2CCc2ccccc21` [imipramine, reference compound], in data set [2], the “Selectivity for SERT over VMAT2” value is above 100 fold.

Regarding N-methyl-5-cyano-ibogamine, the IC50 stood at 440 nM in data set [1] (setting [15]); 5 nM in data set [2]; 10 nM in [3] (setting [16]); 9.8 ± 0.8 nM in data set [3] (setting [17]); 1320 nM in [4] (setting [18]). The “[3H]5-HT Release % Emax via SERT” value in [5] (rat brain synaptosomes, n = 3) was below 30%. Also, the “[3H]5-HT Release EC50 ± SD via SERT” value in [5] (setting [19]) is “inactive”. The “Concentration at which … of 30%” value in data set [6] is above 10 µM. Moreover, the “[3H]5-HT Release % Emax via VMAT2” value in data set [6] was below 30%.

For `CCC1CC2CC3c4c(c5cc(O)ccc5n4CC)CCN(C2)C13` (stereo not shown) [N-ethyl-noribogaine], the IC50 in data set [1] (setting [15]) stood at 70 nM; in data set [2] it was 1860 nM; in data set [3] (setting [16]) it was 80 nM; in [3] (setting [17]) it was 80.1 ± 7.2 nM; in [4] (setting [18]) it was 54 nM. The “Potency in synaptosomes ([3H]5-HT, rSERT) relative to transfected cells (hSERT)” value in [3] is listed as “more than 20 fold”. For the same molecule, the “[3H]5-HT Release % Emax via SERT” value in data set [5] (rat brain synaptosomes, n = 3) was below 30%. In addition, in data set [5] (setting [19]), the “[3H]5-HT Release EC50 ± SD via SERT” value was “inactive”. In data set [6], the “[3H]5-HT Release % Emax via VMAT2” value is given as 31%. Besides, the EC50 in data set [6] (setting [20]) was determined as 711 ± 254 nM. Also, the “Catalepsy in bar test” value is “catalepsy was induced” in data set [11] (mice, 50 mg/kg, s.c., 60-minute mark); “induces catalepsy” in data set [11] (mice, s.c., dose-response); “lack of catalepsy; also recorded: did not induce catalepsy” in [11] (mouse, in vivo). Also, the “Locomotion in open field test” value in data set [12] (30 mg/kg) is given as “completely suppressed locomotion”. Moreover, the “Locomotor activity / sedation in open field test” value in data set [12] was “suppresses locomotor activity”. In [13], the “Cmax, estimated free drug in the brain” value was 11 µM.

As to `CCC1CC2CC3c4oc5ccc(O)cc5c4CCN(C2)C13` (stereo not shown) [oxa-noribogaine], the IC50 in [1] (setting [15]) stood at 670 nM; in data set [2] it was 900 nM.

As for `COc1cc2c(cc1OC)C1CC(=O)C(CC(C)C)CN1CC2` (stereo not shown) [tetrabenazine (TBZ), tetrabenazine, reference compound], the Emax in [6] was below 30%. The “Catalepsy in bar test” value in [11] (mice, s.c., dose-response) is reported as “catalepsy in the bar test in a dose-dependent manner; also recorded: catalepsy can be readily induced”. In addition, the “Locomotor activity / sedation in open field test” value in data set [12] is given as “diminished locomotor activity; also recorded: sedation in the open field test”. In [14], the “Parkinsonism as an adverse effect, share of subjects” value is on record as 15–24%.

The values are drawn from paper PMC13600255 (Journal of the American Chemical Society, 2025).
